Experimental data as given in US5753678A, “Heterocyclic compounds” (Novo Nordisk A/S, priority 1995, dated 1998).
Counter-ions that a name gives are not always drawn.

System: histamine induced paw oedema
Test: Histamine induced paw oedema
Assay type: in vivo, male Sprague-Dawley rats
Details: at 1 mg/kg, intraperitoneally 15 minutes before the anesthetics, rats, paw swelling 20 minutes after histamine
Protocol: II. Histamine induced paw oedema Values for in vivo inhibition of […] induced oedema for the compounds of the present invention were assessed in rats essentially as described by Amann et al. (Europ. J. Pharmacol. 30 279, 227-231, 1995). In brief 250-300 g male Sprague-Dawley rats were […] pentobarbital sodium, and placed on a 32 degree heated table. Ten minutes later histamine (50 microliter, 3 mg/ml) was injected in the right hind paw and 20 minutes hereafter the paw swelling was determined by water plethysmography (Ugo Basile). Test compounds were administered intraperitoneally at 15 minutes before the anesthetics. |Inhibition of histamine induced oedema at 1 mg/kg

SMILES	% oedema inhibition
Cl.O=C(O)[C@@H]1CCCN(CCC=C2c3ccccc3OCOc3ccccc32)C1 [Example 2, (R)-1-(3-(12H-Dibenzo[d,g][1,3]dioxocin-12-ylidene)-1-propyl)-3-piperidinecarboxylic acid hydrochloride]	52%
CCOC(=O)[C@@H]1CCCN(CCC=C2c3ccccc3OCOc3ccccc32)C1 [Example 3, (R)-1-(3-(12H-Dibenzo[d,g][1,3]doxocin-12-ylidene)-1-propyl)-3-piperidinecarboxylic acid ethyl ester hydrochloride]	33%
